Molecular target: Carbonic anhydrase 2 (Homo sapiens, UniProt P00918)
Experiment: Then 30 μL of 16 nM hCA II solution was added (8 nM final concentration), mixed five times. 30 μL of 4-NPA substrate solution was added (2.5 mM final concentration), mixed five times.

IC50: 6 nM
Structure (SMILES): NS(=O)(=O)c1ccc(C(=O)N2C[C@H]3CN(C(=O)/C=C/c4ccc(OC(F)(F)F)cc4)C[C@]3(F)C2)c(F)c1 (relative stereo)

Source: ChEMBL document CHEMBL5727886, “Bicyclic compounds as dual ATX/CA inhibitors” (2020)
